From patent US20210308089A1, “METHODS OF TREATING AND/OR PREVENTING VIRAL INFECTIONS AND/OR DISEASES CAUSED BY VIRUSES IN A SUBJECT IN NEED THEREOF” (priority 2020, published 2021)

System: patients of the REDUCE-IT and earlier EPA placebo-controlled trials
Assay: Example 3: adverse events by risk ratio, icosapent ethyl vs placebo (candidate categories; infectious disease terms of interest)
Conditions: R-I

`CC/C=C\C/C=C\C/C=C\C/C=C\C/C=C\CCCC(=O)OCC` [icosapent ethyl, eicosapentaenoic acid ethyl ester] was tested, and the “NNT: Carotid bruit (AE table)” value was 315, the “NNT: Cholestasis (AE table)” value was −1.67e+07 and the “NNT: Chrohn's Disease (AE table)” value was 2045. The “NNT: Cognitive Decline: Attention disorders and disturbances (AE table)” value was −8362005, the “NNT: Cognitive Decline: Cognitive and attention disorders and disturbances (AE table)” value was −8362005 and the “NNT: Cough (AE table)” value was −69394. The “NNT: Decreased Appetite (AE table)” value was −215, the “NNT: Deep Venous Thromboembolism (AE table)” value was 1364 and the “NNT: Depression: Depressed mood disorders and disturbances (AE table)” value was −340. For the same compound, the “NNT: Depression: Depressive disorders (AE table)” value was −314, the “NNT: Depression: Depressive disorders - Agitated depression (AE table)” value was −2044 and the “NNT: Depression: Depressive disorders - Depression (AE table)” value was −408. The “NNT: Depression: Depressive disorders - Major depression (AE table)” value was −2044, the “NNT: Depression: Depressive disorders - Persistent depressive disorder (AE table)” value was −4088 and the “NNT: Depression: Mood alterations - Depressed mood (AE table)” value was −3344802. For the same compound, the “NNT: Depression: Mood alterations - Depressive symptom (AE table)” value was 4091, the “NNT: Depression: Mood alterations with depressive symptoms (AE table)” value was 4096 and the “NNT: Dermatitis psoriasiform (AE table)” value was −4089. The “NNT: Dermatitis, allergic (AE table)” value was 454, the “NNT: Diabetic Nephropathy (AE table)” value was 4100 and the “NNT: ESRD (AE table)” value was 4092. For the same compound, the “NNT: Ear infection (AE table)” value was 585, the “NNT: Embolism and Thrombosis (AE table)” value was −1358 and the “NNT: Emphysema (AE table)” value was 511. For the same compound, the “NNT: Epilepsy (AE table)” value was −1.67e+07, the “NNT: Erectile dysfunction (AE table)” value was 232 and the “NNT: Furuncle (AE table)” value was 818. The “NNT: Gastroenteritis, viral (AE table)” value was 372, the “NNT: Gastroesophageal reflux (AE table)” value was 682 and the “NNT: Gingivitis (AE table)” value was 818. The “NNT: Glomerulonephritis and Nephrotic Syndrome (AE table)” value was 1023, the “NNT: Guttate psoriasis (AE table)” value was −4089 and the “NNT: Helicobacter infection (AE table)” value was 1023. The “NNT: Hepatitis C (AE table)” value was −4089, the “NNT: Herpes Zoster (AE table)” value was 1371 and the “NNT: Herpes simplex (AE table)” value was 1364. The “NNT: Hyperglycemia (AE table)” value was 186, the “NNT: Hyperkalemia (AE table)” value was 178 and the “NNT: Hypertension (AE table)” value was 171. The “NNT: Hypertensive Crisis (AE Table)” value was 315, the “NNT: Hypokalemia (AE table)” value was −815 and the “NNT: Hypomagnesemia (AE table)” value was 292. The “NNT: Infected bite (AE table)” value was 2046, the “NNT: Influenza (AE table)” value was 515 and the “NNT: Influenza like illness (AE table)” value was 1024. For the same compound, the “NNT: Jaundice cholestatic (AE table)” value was −1022, the “NNT: Large intestine polyps (AE table)” value was 511 and the “NNT: Limb Fractures and Dislocations (AE table)” value was 1024. For the same compound, the “NNT: Lupus (AE table)” value was 4090, the “NNT: Microalbuminuria (AE table)” value was 372 and the “NNT: Migraine (AE table)” value was −584. For the same compound, the “NNT: Mucosal inflammation (AE table)” value was 2046, the “NNT: Multiple Sclerosis (AE table)” value was 4090 and the “NNT: Muscle spasms (AE table)” value was 95. For the same compound, the “NNT: NASH (AE table)” value was 818, the “NNT: NASH for b/l NFS >0.675 (AE table)” value was 273 and the “NNT: NASH+Hepatic Steatosis for NFS >0.675 (AE table)” value was 209. For the same compound, the “NNT: Nasopharyngitis, Mild Severity (AE table)” value was 516, the “NNT: Nephrolithiasis (AE table)” value was −1017 and the “NNT: Nephropathies (AE table)” value was 455. For the same compound, the “NNT: Nephrotic Syndrome (AE table)” value was 4090, the “NNT: Orthopnea (AE table)” value was 1023 and the “NNT: PTSD (AE table)” value was 4092. For the same compound, the “NNT: Pancytopenia (AE table)” value was 1023, the “NNT: Pneumonia (AE table)” value was 293 and the “NNT: Proteinuria (AE table)” value was 455. The “NNT: Psoriasis (AE table)” value was −341, the “NNT: Psoriatic Conditions (AE table)” value was −292 and the “NNT: Psychosis: Psychotic disorder NEC (AE table)” value was 4091. For the same compound, the “NNT: Pulmonary Edema (AE table)” value was 511, the “NNT: Respiratory Failure (AE table)” value was 2050 and the “NNT: Respiratory tract infection (AE table)” value was 1368. For the same compound, the “NNT: Rheumatoid Arthritis (AE table)” value was 1363, the “NNT: Rhinitis (AE table)” value was 682 and the “NNT: Schizophrenia NEC (AE table)” value was 4091. For the same compound, the “NNT: Sepsis (AE table)” value was 455, the “NNT: Severe chronic obstructive pulmonary disease (AE table)” value was 1365 and the “NNT: Severe dermatitis, allergic (AE table)” value was 1363. For the same compound, the “NNT: Severe gastroenteritis (AE table)” value was 1023, the “NNT: Severe sepsis (AE table)” value was 585 and the “NNT: Severe systemic inflammatory response syndrome (AE table)” value was 818. For the same compound, the “NNT: Severe urinary tract infection (AE table)” value was 585, the “NNT: Systemic inflammatory response syndrome (AE table)” value was 682 and the “NNT: Tooth infection (AE table)” value was 455. For the same compound, the “NNT: Ulcerative Colitis (AE table)” value was 4090, the “NNT: Upper respiratory tract infection (AE table)” value was 516 and the “NNT: Vascular hypertensive disorder (AE table)” value was 124. The “NNT: Vulvovaginal mycotic infection (AE table)” value was 682, the “NNT: Wheezing (AE table)” value was 315 and the “Risk Ratio (95% CI): ADHD (AE table)” value was 1.000 (0.141 to 7.097) −1. For the same compound, the “Risk Ratio (95% CI): Allergic sinusitis (AE table)” value was 0.500 (0.092 to 2.729) 3, the “Risk Ratio (95% CI): Alzheimer's Disease (AE table)” value was 1.000 (0.290 to 3.452) −1 and the “Risk Ratio (95% CI): Asthma (AE table)” value was 1.076 (0.742 to 1.560) −1. For the same compound, the “Risk Ratio (95% CI): Atelectasis (AE table)” value was 0.500 (0.243 to 1.030) 3, the “Risk Ratio (95% CI): Bipolar Disease (AE table)” value was 0.333 (0.035 to 3.204) 4 and the “Risk Ratio (95% CI): Blood CPK increased (AE table)” value was 0.684 (0.485 to 0.964) 2. For the same compound, the “Risk Ratio (95% CI): Blood glucose increased (AE table)” value was 0.400 (0.126 to 1.275) 3, the “Risk Ratio (95% CI): Bone Fractures (AE table)” value was 2.000 (0.181 to 22.053) −3 and the “Risk Ratio (95% CI): Bronchiectasis (AE table)” value was 0.500 (0.125 to 1.998) 3. The “Risk Ratio (95% CI): Bronchitis chronic (AE table)” value was 0.667 (0.273 to 1.630) 2, the “Risk Ratio (95% CI): CKD (AE table)” value was 1.123 (0.766 to 1.646) −1 and the “Risk Ratio (95% CI): COPD (AE table)” value was 1.084 (0.837 to 1.405) −1. The “Risk Ratio (95% CI): Carotid bruit (AE table)” value was 0.435 (0.207 to 0.913) 3, the “Risk Ratio (95% CI): Cholestasis (AE table)” value was 1.000 (0.063 to 15.986) −1 and the “Risk Ratio (95% CI): Chrohn's Disease (AE table)” value was 0.333 (0.035 to 3.204) 4. The “Risk Ratio (95% CI): Cognitive Decline: Attention disorders and disturbances (AE table)” value was 1.000 (0.141 to 7.097) −1.
